Series [1] is described as follows: Partition Coefficient Studies (water solubility, heptane solubility, water/heptane partition).
Series [2] is described as follows: Stability of the 7-hydroxymethyl derivative in water. It is filed as physicochemical.
The conditions of series [3]: e.g., heptane; cited from earlier work.
The subject of series [4] is phosphodiesterase. The settings on record: Sutherland and Rall 1958; cited from earlier work.
Where [5] appears, read: heptane, organic solvent or mixture.

Here are results for 9 compounds from patent US4061753A, “Treating psoriasis with transient pro-drug forms of xanthine derivatives” (INTERx Research Corporation, priority 1976, dated 1977).

Values after ≈ are worked out from the molar mass of the structure shown.

What is called solubility is the concentration that dissolves in the medium under given conditions. Regarding `CN(C)CC(=O)OCn1cnc2c1c(=O)n(C)c(=O)n2C`, in series [1] (heptane), the “Heptane (solubility)” value is given as under 10 mg/500 ml. In series [1] (water), the solubility is over 1000 mg/mL.
In the case of `CCN(CC)C(=O)CCC(=O)OCn1cnc2c1c(=O)n(C)c(=O)n2C`, the solubility in series [1] (setting [5]) was found to be 0.17 mg/mL (≈ 0.465 mM); in series [1] (water) it was 26.3 mg/mL (≈ 72 mM).
In the case of `Cn1c(=O)c2c(ncn2CO)n(C)c1=O` [7-hydroxymethyl derivative, 7-hydroxymethyl theophylline], the stability in water entry in series [2] is “extremely unstable in water”.
In the case of `CCC(=O)OCn1cnc2c1c(=O)n(C)c(=O)n2C` [C2 H5, 7-Propionyloxymethyl-theophylline], the results for the solubility in series [1] (setting [5]) and in series [1] (water) were 0.18 mg/mL (≈ 0.676 mM) and 3.87 mg/mL (≈ 14.5 mM), respectively. For the same compound, the Water/Heptane partition coefficient in series [1] is on record as 32.0.
As for `CCCC(=O)OCn1cnc2c1c(=O)n(C)c(=O)n2C` [C3 H7, 7-Butanoyloxymethyl-theophylline], the solubility in series [1] (setting [5]) amounted to 0.65 mg/mL (≈ 2.32 mM); in series [1] (water), 3.89 mg/mL (≈ 13.9 mM). Also, the Water/Heptane partition coefficient in series [1] amounted to 6.30.
On the same counts, the results for `CCCCCC(=O)OCn1cnc2c1c(=O)n(C)c(=O)n2C` [C5 H11, 7-Hexanoyloxymethyl-theophylline] are 2.26 mg/mL (≈ 7.33 mM), 0.11 mg/mL (≈ 0.357 mM) and 0.42.
On the same counts, the results for `CCCCCCCC(=O)OCn1cnc2c1c(=O)n(C)c(=O)n2C` [C7 H15, 7-Octanoyloxymethyl-theophylline] are 0.52 mg/mL (≈ 1.55 mM), 0.12 mg/mL (≈ 0.357 mM) and 0.06.
With `Cn1c(=O)c2c(ncn2COC(=O)C(C)(C)C)n(C)c1=O` [C(CH3)3, 7-Pivalyloxymethyl-theophylline], the solubility in series [1] (setting [5]) worked out at 1.55 mg/mL (≈ 5.27 mM); in series [1] (water) it was 2.01 mg/mL (≈ 6.83 mM). This compound came in with a Water/Heptane partition coefficient in series [1] of 1.11.
As to `Cn1c(=O)c2[nH]cnc2n(C)c1=O` [theophylline], in series [3], the “solubility in lipid-like solvents” value is “almost insoluble”. The “effect on degradation of cyclic AMP by inhibiting phosphodiesterase activity” value in series [4] was “decrease the degradation of cyclic AMP by inhibiting phosphodiesterase activity”.
